In assay [1] the target is recombinant human renin (Homo sapiens (Human), UniProt P00797). As to the kind of experiment: In-vitro fluorescence assay for identification of renin-inhibitory activity. Type of assay: biochemical. The following applies: renin 10 nM, pH 7.2. As for the experimental part: In order to identify modulators of renin activity, a continuous enzymatic test was carried out with a synthetic peptide which carries a fluorescent group Edans (=(5-(aminoethyl)aminonaphthalenesulfonate) which is quenched by energy transfer from a Dabcyl (4′-dimethylaminoazobenzene-4-carboxylate) group on the same molecule, in Greiner 384-well microtitre plates. Cleavage of the peptidic substrate by renin causes an increase in the fluorescence intensity. In order to determine the efficacy of substances, the time-dependent increase in the fluorescence intensity in the presence of the substance was compared with the time-dependent increase in fluorescence in the absence of substances. The reference substance used was renin inhibitor 2 (Z-Arg-Arg-Pro-Phe-His-Sta-Ile-His N-Boc-Lys methyl ester Z) (Sigma-Aldrich). The substrate used was renin FRET substrate I (DABCYL-g-Abu-Ile-His-Pro-Phe-His-Leu-Val-Ile-His-Thr EDANS) (Anaspec, Fremont Calif.). The enzyme employed was recombinant human renin (Proteos, Kalamazoo, Mich.) in a final concentration of 10 nM. The test was carried out in 50 mM Mops buffer, 1.5% (v/v) of DMSO, 0.1% (w/v) of Igepal®, pH 7.2, 0.5% (w/v) of BSA. 2 μl of each substance solution with serially diluted substance concentration were added to in each case 4 μl of renin solution and incubated at room temperature for 15 min. The reaction was started by addition of 4 μl of substrate solution (final concentration 5 μM). After carrying out a starting-point fluorescence measurement (excitation wavelength 340 nm/emission wavelength 495 nm) using an Envision multilabel reader (Perkin Elmer), the reaction was incubated at 37° C. for 60 min. The amount of peptide fragment cleaved off during the reaction time was subsequently measured by determination of the increase in the fluorescence intensity at 495 nm (excitation wavelength 340 nm).

Assay [2] has as its target cathepsin D isolated from the human liver (Homo sapiens (Human), UniProt P07339). As to the kind of experiment: In-vitro fluorescence assay for identification of cathepsin D inhibitors. Type of assay: biochemical. Particulars: cathepsin D 1.4 nM, pH 5.5; values in E notation; read-out: Cath D IC50. Here is the method:
In order to identify modulators of cathepsin D activity, a continuous enzymatic test was carried out with a synthetic peptide which carries a fluorescent group (MCA=(7-methoxycoumarin-4-yl)acetyl) which is quenched by energy transfer from a Dpn (2,4 dinitrophenyl) group on the same molecule, in Greiner 384-well nb microtitre plates. Cleavage of the peptidic substrate by cathepsin D causes an increase in the fluorescence intensity. In order to determine the efficacy of substances, the time-dependent increase in the fluorescence intensity in the presence of the substance was compared with the time-dependent increase in fluorescence in the absence of substances. The reference substance used was pepstatin A (Sigma-Aldrich). The substrate used was MCA-GKPILFFRLK(Dnp)d-R—NH2 (Enzo Life Sciences, Lor-rach). The enzyme employed was cathepsin D isolated from the human liver (Sigma-Aldrich) in a final concentration of 1.4 nM. The test was carried out in 100 mM sodium acetate buffer, 1.25% (v/v) of DMSO, 0.25% (w/v) of Chaps, pH 5.5. 2 μl of each substance solution with serially diluted substance concentration were added to in each case 4 μl of cathepsin D solution and incubated at room temperature for 10 min. The reaction was started by addition of 2 μl of substrate solution (final concentration 5 μM). After carrying out a starting-point fluorescence measurement (excitation wavelength 340 nm/emission wavelength 450 nm) using an Envision multilabel reader (Perkin Elmer), the reaction was incubated at room temperature for 60 min. The amount of peptide fragment cleaved off during the reaction time was subsequently measured by determination of the increase in the fluorescence intensity at 450 nm (excitation wavelength 340 nm).
The IC50 values of the compounds according to the invention can be obtained from Table 2 from Example 1.

Starred links: 1 amine or outer side, 2 acyl side, 3 side chain; linkers in the order of their positions; H or OH if unused. Non-standard residues stand in square brackets, D forms with d. Residues, ends and D or L forms follow the SMILES beside them. *: point of attachment. Hexanoyl(5S-NH,4S-OH,6-Ph) = O=C(CC[C@H](O)[C@H](Cc1ccccc1)N[*:1])[*:2]; Isovaleryl = CC(C)CC(=O)*

Sequence of cathepsin D isolated from the human liver (P07339 65-161): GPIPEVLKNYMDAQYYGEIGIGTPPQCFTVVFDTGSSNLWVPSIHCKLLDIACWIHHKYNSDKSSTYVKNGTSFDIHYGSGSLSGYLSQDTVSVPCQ
Sequence of cathepsin D isolated from the human liver (P07339 169-412): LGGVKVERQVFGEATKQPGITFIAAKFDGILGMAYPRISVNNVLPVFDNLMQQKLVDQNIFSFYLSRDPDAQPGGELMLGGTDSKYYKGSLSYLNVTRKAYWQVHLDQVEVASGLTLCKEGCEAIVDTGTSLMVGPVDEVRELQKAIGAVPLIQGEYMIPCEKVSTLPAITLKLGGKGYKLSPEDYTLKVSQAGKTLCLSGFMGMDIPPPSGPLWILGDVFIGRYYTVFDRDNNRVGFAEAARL
Sequence of recombinant human renin (P00797 67-406): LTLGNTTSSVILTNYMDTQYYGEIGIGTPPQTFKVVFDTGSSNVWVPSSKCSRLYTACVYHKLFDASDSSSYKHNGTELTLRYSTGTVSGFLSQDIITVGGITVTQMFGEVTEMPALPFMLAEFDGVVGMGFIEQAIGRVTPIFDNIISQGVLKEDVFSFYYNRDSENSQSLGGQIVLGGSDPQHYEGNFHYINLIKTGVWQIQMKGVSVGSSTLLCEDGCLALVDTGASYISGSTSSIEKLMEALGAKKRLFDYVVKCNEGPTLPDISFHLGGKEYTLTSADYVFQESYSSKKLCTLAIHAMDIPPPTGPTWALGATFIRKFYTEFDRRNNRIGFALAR

With `CC[C@H](C)[C@H](NC(=O)CC[C@H](O)[C@H](Cc1ccccc1)NC(=O)[C@@H](NC(=O)Cc1cccc(OC(F)(F)F)c1)C(C)C)C(=O)N[C@H](C(=O)O)C(C)C` [Compound A22, (S)-2-[(2S,3S)-2-((4S,5S)-4-Hydroxy-5-{(S)-3-methyl-2-[2-(3-trifluoro-methoxyphenyl)acetylamino]butyrylamino}-6-phenylhexanoylamino)-3-methylpentanoylamino]-3-methylbutyric acid], the IC50 (commonly the concentration that inhibits the measured activity by half) was more than 30 µM in assay [1] and 0.35 µM in assay [2].
On to `CCOc1cccc(CC(=O)N[C@H](C(=O)N[C@@H](Cc2ccccc2)[C@@H](O)CCC(=O)NCCc2ccccc2)C(C)C)c1` [Compound A19, (4S,5S)-5-{(S)-2-[2-(3-Ethoxyphenyl)acetylamino]-3-methylbutyrylamino}-4-hydroxy-6-phenylhexanoic acid phenethylamide], for which, in assay [1], the IC50 is more than 30 µM.
Same read-out and setting: the same measure for `COc1ccc(CC(=O)N[C@H](C(=O)N[C@@H](Cc2ccccc2)[C@@H](O)CCC(=O)NCCc2ccccc2)C(C)C)cc1` [Compound A7, (4S,5S)-4-Hydroxy-5-{(S)-2-[2-(4-methoxyphenyl)acetylamino]-3-methyl-butyrylamino}-6-phenylhexanoic acid phenethylamide]: more than 30 µM; for `CC(C)[C@H](NC(=O)CCCc1ccccc1)C(=O)N[C@@H](Cc1ccccc1)[C@@H](O)CCC(=O)NCCc1ccccc1` [Compound A20, (4S,5S)-4-Hydroxy-5-[(S)-3-methyl-2-(4-phenylbutyrylamino)butyryl-amino]-6-phenylhexanoic acid phenethylamide]: more than 30 µM.
For the compound `COC(=O)[C@@H](NC(=O)[C@H](Cc1ccccc1)NC(=O)CC[C@H](O)[C@H](Cc1ccccc1)NC(=O)[C@@H](NC(=O)[C@H](CC(C)C)NC(=O)CC(C)C)C(C)C)C(C)C` [Compound A17, (S)-2-[(S)-2-((4S,5S)-4-Hydroxy-5-{(S)-3-methyl-2-[(S)-4-methyl-2-(3-methylbutyrylamino)pentanoylamino]butyrylamino}-6-phenylhexanoyl-amino)-3-phenylpropionylamino]-3-methylbutyric acid methyl ester] (Isovaleryl-LV[Hexanoyl(5S-NH,4S-OH,6-Ph)]FV-OMe), the figures for the IC50 in assay [1] and in assay [2] were more than 30 µM and 0.255 µM, respectively.
For the compound `Cc1ccc(OCC(=O)N[C@H](C(=O)N[C@@H](Cc2ccccc2)[C@@H](O)CCC(=O)NCCc2ccccc2)C(C)C)cc1C` [Compound A10, (4S,5S)-5-{(S)-2-[2-(3,4-Dimethylphenoxy)acetylamino]-3-methylbutyryl-amino}-4-hydroxy-6-phenylhexanoic acid phenethylamide], in assay [1], the IC50 was more than 30 µM.
Still for that read-out and setting: the same measure for `COc1ccccc1CC(=O)N[C@H](C(=O)N[C@@H](Cc1ccccc1)[C@@H](O)CCC(=O)NCCc1ccccc1)C(C)C` [Compound A9, (4S,5S)-4-Hydroxy-5-{(S)-2-[2-(2-methoxyphenyl)acetylamino]-3-methyl-butyrylamino}-6-phenylhexanoic acid phenethylamide]: more than 30 µM; for `CC(C)[C@H](NC(=O)Cc1cccc(Oc2ccccc2)c1)C(=O)N[C@@H](Cc1ccccc1)[C@@H](O)CCC(=O)NCc1ccccc1` [Compound A15, (4S,5S)-4-Hydroxy-5-{(S)-3-methyl-2-[2-(3-phenoxyphenyl)acetylamino]-butyrylamino}-6-phenylhexanoic acid benzylamide]: more than 30 µM.
Take `CC[C@H](C)[C@H](NC(=O)CC[C@H](O)[C@H](Cc1ccccc1)NC(=O)[C@@H](NC(=O)[C@H](CC(C)C)NC(=O)OC(C)(C)C)C(C)C)C(=O)NCc1cnc(C)nc1N` [Compound A1, {(S)-1-[(S)-1-((1S,2S)-4-{(1S,2S)-1-[(4-Amino-2-methylpyrimidin-5-yl-methyl)carbamoyl]-2-methylbutylcarbamoyl}-1-benzyl-2-hydroxybutyl-carbamoyl)-2-methylpropylcarbamoyl]-3-methylbutyl}carbamic acid tert-butyl ester]: the IC50 amounted to 0.32 µM in assay [1] (values in E notation) and 0.43 µM in assay [2].
`CC[C@H](C)[C@H](NC(=O)CC[C@H](O)[C@H](Cc1ccccc1)NC(=O)[C@@H](NC(=O)[C@H](CC(C)C)NC(=O)CC(C)C)C(C)C)C(=O)N[C@H](C(=O)O)C(C)C` [Compound A21, (S)-2-[(2S,3S)-2-((4S,5S)-4-Hydroxy-5-{(S)-3-methyl-2-[(S)-4-methyl-2-(3-methylbutyrylamino)pentanoylamino]butyrylamino}-6-phenylhexanoyl-amino)-3-methylpentanoylamino]-3-methylbutyric acid] (Isovaleryl-LV[Hexanoyl(5S-NH,4S-OH,6-Ph)]IV-OH): the IC50 in assay [1] (values in E notation) turned out to be 12 µM; in assay [2], 0.024 µM.
In the case of `CC(C)[C@H](NC(=O)Cc1cccc(Oc2ccccc2)c1)C(=O)N[C@@H](Cc1ccccc1)[C@@H](O)CCC(=O)NCCc1ccccc1` [Compound A6, (4S,5S)-4-Hydroxy-5-{(S)-3-methyl-2-[2-(3-phenoxyphenyl)acetylamino]-butyrylamino}-6-phenylhexanoic acid phenethylamide], the IC50 in assay [1] is more than 30 µM; in assay [2], 12 µM.
Turning to `COc1cccc(CC(=O)N[C@H](C(=O)N[C@@H](Cc2ccccc2)[C@@H](O)CCC(=O)NCCc2ccccc2)C(C)C)c1` [Compound A8, (4S,5S)-4-Hydroxy-5-{(S)-2-[2-(3-methoxyphenyl)acetylamino]-3-methyl-butyrylamino}-6-phenylhexanoic acid phenethylamide], the IC50 in assay [1] is more than 30 µM.
The same measure, in the same setting: the same measure for `CC(C)[C@H](NC(=O)Cc1cccc(Oc2ccccc2)c1)C(=O)N[C@@H](Cc1ccccc1)[C@@H](O)CCC(=O)N1CCc2ccccc21` [Compound A16, (S)-N-[(1S,2S)-1-Benzyl-5-(2,3-dihydroindol-1-yl)-2-hydroxy-5-oxopentyl]-3-methyl-2-[2-(3-phenoxyphenyl)acetylamino]butyramide]: more than 30 µM; for `Cc1cccc(C)c1NC(=O)CC[C@H](O)[C@H](Cc1ccccc1)NC(=O)[C@@H](NC(=O)Cc1cccc(Oc2ccccc2)c1)C(C)C` [Compound A14, (4S,5S)-4-Hydroxy-5-{(S)-3-methyl-2-[2-(3-phenoxyphenyl)acetylamino]-butyrylamino}-6-phenylhexanoic acid (2,6-dimethylphenyl)amide]: more than 30 µM.
As to `COc1ccc(CC(=O)N[C@H](C(=O)N[C@@H](Cc2ccccc2)[C@@H](O)CCC(=O)NCCc2ccccc2)C(C)C)cc1OC` [Compound A5, (4S,5S)-5-{(S)-2-[2-(3,4-Dimethoxyphenyl)acetylamino]-3-methylbutyryl-amino}-4-hydroxy-6-phenylhexanoic acid phenethylamide], in assay [1], the IC50 is more than 30 µM.
As to `CC(C)[C@H](NC(=O)Cc1cccc2ccccc12)C(=O)N[C@@H](Cc1ccccc1)[C@@H](O)CCC(=O)NCCc1ccccc1` [Compound A12, (4S,5S)-4-Hydroxy-5-[(S)-3-methyl-2-(2-naphthalen-1-ylacetylamino)-butyrylamino]-6-phenylhexanoic acid phenethylamide], the IC50 in assay [1] is more than 30 µM.
For the compound `CC(C)[C@H](NC(=O)Cc1cccc(OC(F)(F)F)c1)C(=O)N[C@@H](Cc1ccccc1)[C@@H](O)CCC(=O)NCCc1ccccc1` [Compound A3, (4S,5S)-4-Hydroxy-5-{(S)-3-methyl-2-[2-(3-trifluoromethoxyphenyl)-acetylamino]butyrylamino}-6-phenylhexanoic acid phenethylamide], the IC50 in assay [1] was more than 30 µM.
